Reference: patent publication US9809587B2, “Pesticidally active heterocyclic derivatives with sulphur containing substituents” (Syngenta Participations AG, priority 2014, dated 2017)

Key:
Assay type in all cases: in vivo
[1] = tested on: Bemisia tabaci (Cotton White Fly); assay: Bemisia tabaci (cotton white fly), sprayed cotton leaf discs; conditions: foliar, 144 h, application rate of 200 ppm, adult white flies on cotton leaf discs, 6 days after incubation
Description: Example B1: Bemisia tabaci (Cotton White Fly)
Cotton leaf discs were placed on agar in 24-well microtiter plates and sprayed with aqueous test solutions prepared from 10′000 ppm DMSO stock solutions. After drying the leaf discs were infested with adult white flies. The samples were checked for mortality 6 days after incubation.

[2] = tested on: Euschistus heros (Neotropical Brown Stink Bug); assay: Euschistus heros (neotropical brown stink bug), sprayed soybean leaf; conditions: 120 h, application rate of 200 ppm, N-2 nymphs on soybean leaf, 5 days after infestation
Description: Example B3: Euschistus heros (Neotropical Brown Stink Bug)
Soybean leaf on agar in 24-well microtiter plates were sprayed with aqueous test solutions prepared from 10′000 ppm DMSO stock solutions. After drying the leaf were infested with N-2 nymphs. The samples were assessed for mortality in comparison to untreated samples 5 days after infestation.

[3] = tested on: Myzus persicae (Green Peach Aphid); assay: Myzus persicae (green peach aphid), sprayed sunflower leaf discs; conditions: foliar, 144 h, application rate of 200 ppm, mixed ages on sunflower leaf discs, 6 days after infestation
Description: Example B4: Myzus persicae (Green Peach Aphid)
Sunflower leaf discs were placed on agar in a 24-well microtiter plate and sprayed with aqueous test solutions prepared from 10′000 ppm DMSO stock solutions. After drying, the leaf discs were infested with an aphid population of mixed ages. The samples were assessed for mortality 6 days after infestation.

[4] = tested on: Diabrotica balteata (Corn Root Worm); assay: Diabrotica balteata (corn root worm), sprayed maize sprouts; conditions: 96 h, application rate of 200 ppm, L2 larvae on maize sprouts, 4 days after infestation
Description: Example B2: Diabrotica balteata (Corn Root Worm)
Maize sprouts, placed on an agar layer in 24-well microtiter plates were treated with aqueous test solutions prepared from 10′000 ppm DMSO stock solutions by spraying. After drying, the plates were infested with L2 larvae (6 to 10 per well). The samples were assessed for mortality and growth inhibition in comparison to untreated samples 4 days after infestation.

[5] = tested on: Spodoptera littoralis (Egyqptian Cotton Leaf Worm); assay: Spodoptera littoralis (Egyptian cotton leaf worm), sprayed cotton leaf discs; conditions: foliar, 72 h, application rate of 200 ppm, L1 larvae on cotton leaf discs, 3 days after infestation
Description: Example B7: Spodoptera littoralis (Egyqptian Cotton Leaf Worm)
Cotton leaf discs were placed on agar in 24-well microtiter plates and sprayed with aqueous test solutions prepared from 10′000 ppm DMSO stock solutions. After drying the leaf discs were infested with five L1 larvae. The samples were assessed for mortality, anti-feedant effect, and growth inhibition in comparison to untreated samples 3 days after infestation. Control of Spodoptera littoralis by a test sample is when at least one of mortality, anti-feedant effect, and growth inhibition is higher than the untreated sample.

[6] = tested on: Plutella xylostella (Diamond Back Moth); assay: Plutella xylostella (diamond back moth), treated artificial diet; conditions: 120 h, application rate of 200 ppm, L2 larvae on artificial diet, 5 days after infestation, read-out: effect in at least one of the two categories (mortality or growth inhibition)
Description: Example B6: Plutella xylostella (Diamond Back Moth)
24-well microtiter plates with artificial diet were treated with aqueous test solutions prepared from 10′000 ppm DMSO stock solutions by pipetting. After drying, the plates were infested with L2 larvae (10 to 15 per well). The samples were assessed for mortality and growth inhibition in comparison to untreated samples 5 days after infestation.
The following compounds gave an effect of at least 80% in at least one of the two categories (mortality or growth inhibition) at an application rate of 200 ppm: […]

[7] = tested on: Myzus persicae (Green Peach Aphid); assay: Myzus persicae (green peach aphid), roots of pea seedlings in test solution; conditions: 144 h, test rate of 24 ppm, roots of infested pea seedlings in test solution, 6 days
Description: Example B5: Myzus persicae (Green Peach Aphid)
Roots of pea seedlings infested with an aphid population of mixed ages were placed directly in the aqueous test solutions prepared from 10′000 DMSO stock solutions. The samples were assessed for mortality 6 days after placing seedlings in test solutions.

[8] = tested on: Spodoptera littoralis (Egyqptian Cotton Leaf Worm); assay: Spodoptera littoralis (Egyptian cotton leaf worm), compound in agar taken up by lettuce roots; conditions: 144 h, test rate of 12.5 ppm, uptake by lettuce roots from agar, 6 days after infestation, read-out: effect in at least one of the three categories (mortality, anti-feedancy, or growth inhibition)
From the text: Example B8: Spodoptera littoralis (Egyqptian Cotton Leaf Worm)
Test compounds were applied by pipette from 10′000 ppm DMSO stock solutions into 24-well plates and mixed with agar. Lettuce seeds were placed on the agar and the multi well plate was closed by another plate which contains also agar. After 7 days the roots have absorbed the compound and the lettuce has grown into the lid plate. The lettuce leafs were now cut off into the lid plate. Spodoptera eggs were pipetted through a plastic stencil on a humid gel blotting paper and the plate closed with it. The samples were assessed for mortality, anti-feedant effect and growth inhibition in comparison to untreated samples 6 days after infestation.
The following compounds gave an effect of at least 80% in at least one of the three categories (mortality, anti-feedancy, or growth inhibition) at a test rate of 12.5 ppm: […]

CCS(=O)(=O)c1cc(-c2cncc(C(F)(F)F)c2)cnc1-c1nc2cc(C(F)(F)F)ncc2n1C [Compound P66]
≥ 80%: mortality at 200 ppm [1] | mortality at 200 ppm [2] | mortality at 200 ppm [3] | mortality at 200 ppm [4] | percent control (mortality, anti-feedant effect or growth inhibition) at 200 ppm [5] | percent effect (mortality or growth inhibition) at 200 ppm [6]

CCS(=O)(=O)c1cc(-c2cnc(OC)nc2)cnc1-c1nc2cc(C(F)(F)F)ncc2n1C [Compound P9]
≥ 80%: mortality at 24 ppm [7] | mortality at 200 ppm [3] | percent control (mortality, anti-feedant effect or growth inhibition) at 200 ppm [5] | percent effect (mortality or growth inhibition) at 200 ppm [6]

CCS(=O)(=O)c1cc(-c2cc(OC)ccn2)cnc1-c1nc2cc(C(F)(F)F)ncc2n1C [Compound P109]
≥ 80%: mortality at 24 ppm [7] | mortality at 200 ppm [2] | mortality at 200 ppm [3] | mortality at 200 ppm [4] | percent control (mortality, anti-feedant effect or growth inhibition) at 200 ppm [5] | percent effect (mortality or growth inhibition) at 200 ppm [6]

CCS(=O)(=O)c1cc(-c2ncccc2NC(=O)C(F)(F)F)cnc1-c1nc2cc(C(F)(F)F)ncc2n1C [Compound P49]
≥ 80%: mortality at 24 ppm [7] | mortality at 200 ppm [2] | mortality at 200 ppm [3]

CCS(=O)(=O)c1cc(-n2ccccc2=O)cnc1-c1nc2cc(C(F)(F)F)ncc2n1C [Compound P26]
≥ 80%: mortality at 24 ppm [7] | mortality at 200 ppm [2] | mortality at 200 ppm [3] | mortality at 200 ppm [4] | percent effect (mortality or growth inhibition) at 200 ppm [6]

CCS(=O)(=O)c1cc(-c2cccn3ncnc23)cnc1-c1nc2cc(C(F)(F)F)ncc2n1C [Compound P34]
≥ 80%: mortality at 24 ppm [7] | mortality at 200 ppm [2] | mortality at 200 ppm [3] | mortality at 200 ppm [4] | percent control (mortality, anti-feedant effect or growth inhibition) at 200 ppm [5] | percent effect (mortality or growth inhibition) at 200 ppm [6]

CCS(=O)(=O)c1cc(-c2cncc(Cl)c2)cnc1-c1nc2cc(C(F)(F)F)ncc2n1C [Compound P3]
≥ 80%: mortality at 24 ppm [7] | mortality at 200 ppm [2] | mortality at 200 ppm [3] | mortality at 200 ppm [4] | percent effect (mortality or growth inhibition) at 200 ppm [6]

CCS(=O)(=O)c1cc(-c2cncc(C)c2)cnc1-c1nc2cc(C(F)(F)F)ncc2n1C [Compound P45]
≥ 80%: mortality at 200 ppm [1] | mortality at 200 ppm [2] | mortality at 200 ppm [3] | mortality at 200 ppm [4] | percent control (mortality, anti-feedant effect or growth inhibition) at 200 ppm [5] | percent effect (mortality or growth inhibition) at 200 ppm [6]

CCS(=O)(=O)c1cc(-c2cccc(Cl)n2)cnc1-c1nc2cc(C(F)(F)F)ncc2n1C [Compound P59]
≥ 80%: mortality at 200 ppm [1] | mortality at 200 ppm [2] | mortality at 200 ppm [3] | mortality at 200 ppm [4] | percent control (mortality, anti-feedancy or growth inhibition) at 12.5 ppm [8] | percent control (mortality, anti-feedant effect or growth inhibition) at 200 ppm [5] | percent effect (mortality or growth inhibition) at 200 ppm [6]

CCS(=O)(=O)c1cc(-c2ccnc(Cl)c2)cnc1-c1nc2cc(C(F)(F)F)ncc2n1C [Compound P77]
≥ 80%: mortality at 200 ppm [1] | mortality at 200 ppm [2] | mortality at 200 ppm [3] | mortality at 200 ppm [4] | percent control (mortality, anti-feedancy or growth inhibition) at 12.5 ppm [8] | percent control (mortality, anti-feedant effect or growth inhibition) at 200 ppm [5] | percent effect (mortality or growth inhibition) at 200 ppm [6]

CCS(=O)(=O)c1cc(-n2cnc(C(F)(F)F)c2)cnc1-c1nc2cc(C(F)(F)F)ncc2n1C [Compound P87]
≥ 80%: mortality at 24 ppm [7] | mortality at 200 ppm [3] | mortality at 200 ppm [4]

CCS(=O)(=O)c1cc(-c2ccnc(C(F)(F)F)c2)cnc1-c1nc2cc(C(F)(F)F)ncc2n1C [Compound P46]
≥ 80%: mortality at 200 ppm [1] | mortality at 200 ppm [2] | mortality at 200 ppm [3] | mortality at 200 ppm [4] | percent control (mortality, anti-feedancy or growth inhibition) at 12.5 ppm [8] | percent control (mortality, anti-feedant effect or growth inhibition) at 200 ppm [5] | percent effect (mortality or growth inhibition) at 200 ppm [6]

CCS(=O)(=O)c1cc(-n2ccc(C)n2)cnc1-c1nc2cc(C(F)(F)F)ncc2n1C [Compound P102]
≥ 80%: mortality at 24 ppm [7] | mortality at 200 ppm [2] | mortality at 200 ppm [3] | mortality at 200 ppm [4] | percent control (mortality, anti-feedant effect or growth inhibition) at 200 ppm [5] | percent effect (mortality or growth inhibition) at 200 ppm [6]

CCS(=O)(=O)c1cc(-c2nccc(C)n2)cnc1-c1nc2cc(C(F)(F)F)ncc2n1C [Compound P103]
≥ 80%: mortality at 200 ppm [1] | mortality at 200 ppm [2] | mortality at 200 ppm [3] | mortality at 200 ppm [4] | percent control (mortality, anti-feedancy or growth inhibition) at 12.5 ppm [8] | percent control (mortality, anti-feedant effect or growth inhibition) at 200 ppm [5] | percent effect (mortality or growth inhibition) at 200 ppm [6]

CCS(=O)(=O)c1cc(-c2cnc(N)nc2C)cnc1-c1nc2cc(C(F)(F)F)ncc2n1C [Compound P58]
≥ 80%: mortality at 24 ppm [7] | mortality at 200 ppm [2] | mortality at 200 ppm [3] | mortality at 200 ppm [4] | percent effect (mortality or growth inhibition) at 200 ppm [6]

CCS(=O)(=O)c1cc(-c2cnc3nc(C)ccn23)cnc1-c1nc2cc(C(F)(F)F)ncc2n1C [Compound P37]
≥ 80%: mortality at 24 ppm [7] | mortality at 200 ppm [2] | mortality at 200 ppm [3] | mortality at 200 ppm [4] | percent effect (mortality or growth inhibition) at 200 ppm [6]

CCS(=O)(=O)c1cc(-c2cncs2)cnc1-c1nc2cc(C(F)(F)F)ncc2n1C [Compound P60]
≥ 80%: mortality at 24 ppm [7] | mortality at 200 ppm [2] | mortality at 200 ppm [3] | mortality at 200 ppm [4] | percent control (mortality, anti-feedant effect or growth inhibition) at 200 ppm [5] | percent effect (mortality or growth inhibition) at 200 ppm [6]
